According to patent publication US6914045B2, “Glycopeptide antibiotics” (Wyeth Holdings Corporation, priority 2001, dated 2005):
Converted amounts (≈) assume the structure as drawn.

How the values were obtained:
Experiment in all cases: in vitro antibacterial evaluation, MIC by broth dilution
Type in all cases: cell-based
Escherichia coli = conditions: 18 hours at 35° C.
Outline: (§1)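 Step 1: dilute antibiotic across 64-0.06 μg/mL in Muller-Hinton II […]. Step 2: inoculate at 5×10^5 CFU/mL.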

Streptococcus sp. = conditions: broth dilution, 18 hours at 35° C.
Outline: as §1

Staphylococcus sp. = conditions: broth dilution, 18 hours at 35° C.
Outline: as §1

Enterococcus sp. = conditions: broth dilution, 18 hours at 35° C.
Outline: as §1

MIC Escherichia coli (ATCC 25922) (Escherichia coli; strain ATCC 25922): 64 µg/mL (≈ 41.2 µM)
MIC Escherichia coli (GC 4559) (Escherichia coli; strain GC 4559): 32 µg/mL (≈ 20.6 µM)
MIC Escherichia coli (GC 4560) (Escherichia coli; strain GC 4560): 8 µg/mL (≈ 5.16 µM)
MIC Streptococcus agalactiae (GC 4564) (Streptococcus sp.; Streptococcus agalactiae (GC 4564)): 0.5 µg/mL (≈ 0.322 µM)
MIC Streptococcus pneumoniae (ATCC 6301) (Streptococcus sp.; Streptococcus pneumoniae (ATCC 6301)): 0.5 µg/mL (≈ 0.322 µM)
MIC Streptococcus pneumoniae (GC 1894) (Streptococcus sp.; Streptococcus pneumoniae (GC 1894)): <0.12 µg/mL
MIC Streptococcus pneumoniae (GC 4565) (Streptococcus sp.; Streptococcus pneumoniae (GC 4565)): 0.5 µg/mL (≈ 0.322 µM)
MIC Streptococcus pyogenes (GC 4563) (Streptococcus sp.; Streptococcus pyogenes (GC 4563)): 0.5 µg/mL (≈ 0.322 µM)
MIC Streptococcus pneumoniae (ATCC 6301) (Streptococcus sp.; strain ATCC 6301): 0.5 µg/mL (≈ 0.322 µM)
MIC Streptococcus pneumoniae (GC 1894) (Streptococcus sp.; strain GC 1894): <0.12 µg/mL
MIC Streptococcus pyogenes (GC 4563) (Streptococcus sp.; strain GC 4563): 0.5 µg/mL (≈ 0.322 µM)
MIC Streptococcus agalactiae (GC 4564) (Streptococcus sp.; strain GC 4564): 0.5 µg/mL (≈ 0.322 µM)
MIC Streptococcus pneumoniae (GC 4565) (Streptococcus sp.; strain GC 4565): 0.5 µg/mL (≈ 0.322 µM)
MIC Coagulase Negative Staphylococcus (GC 4547) (Staphylococcus sp.): 8 µg/mL (≈ 5.16 µM)
MIC Coagulase Negative Staphylococcus (GC 4548) (Staphylococcus sp.): 4 µg/mL (≈ 2.58 µM)
MIC Coagulase Negative Staphylococcus (GC 4549) (Staphylococcus sp.): 4 µg/mL (≈ 2.58 µM)
MIC Coagulase Negative Staphylococcus (GC 4551) (Staphylococcus sp.): 8 µg/mL (≈ 5.16 µM)
MIC Staphylococcus aureus (ATCC 29213) (Staphylococcus sp.): 8 µg/mL (≈ 5.16 µM)
MIC Staphylococcus aureus (GC 1131) (Staphylococcus sp.): 8 µg/mL (≈ 5.16 µM)
MIC Staphylococcus aureus (GC 3051) (Staphylococcus sp.): 8 µg/mL (≈ 5.16 µM)
MIC Staphylococcus aureus (GC 3053) (Staphylococcus sp.): 8 µg/mL (≈ 5.16 µM)
MIC Staphylococcus aureus (GC 4541) (Staphylococcus sp.): 16 µg/mL (≈ 10.3 µM)
MIC Staphylococcus aureus (GC 4542) (Staphylococcus sp.): 8 µg/mL (≈ 5.16 µM)
MIC Staphylococcus aureus (GC 4544) (Staphylococcus sp.): 16 µg/mL (≈ 10.3 µM)
MIC Staphylococcus aureus (GC 4545) (Staphylococcus sp.): 8 µg/mL (≈ 5.16 µM)
MIC Staphylococcus aureus-SMITH (GC 4543) (Staphylococcus sp.): 8 µg/mL (≈ 5.16 µM)
MIC Coagulase Negative Staphylococcus (GC 4547) (Staphylococcus sp.; strain GC 4547): 8 µg/mL (≈ 5.16 µM)
MIC Coagulase Negative Staphylococcus (GC 4548) (Staphylococcus sp.; strain GC 4548): 4 µg/mL (≈ 2.58 µM)
MIC Coagulase Negative Staphylococcus (GC 4549) (Staphylococcus sp.; strain GC 4549): 4 µg/mL (≈ 2.58 µM)
MIC Coagulase Negative Staphylococcus (GC 4551) (Staphylococcus sp.; strain GC 4551): 8 µg/mL (≈ 5.16 µM)
MIC Staphylococcus aureus-SMITH (GC 4543) (Staphylococcus sp.; strain SMITH GC 4543): 8 µg/mL (≈ 5.16 µM)
MIC Staphylococcus aureus (ATCC 29213) (Staphylococcus sp.; strain ATCC 29213): 8 µg/mL (≈ 5.16 µM)
MIC Staphylococcus aureus (GC 1131) (Staphylococcus sp.; strain GC 1131): 8 µg/mL (≈ 5.16 µM)
MIC Staphylococcus aureus (GC 3051) (Staphylococcus sp.; strain GC 3051): 8 µg/mL (≈ 5.16 µM)
MIC Staphylococcus aureus (GC 3053) (Staphylococcus sp.; strain GC 3053): 8 µg/mL (≈ 5.16 µM)
MIC Staphylococcus aureus (GC 4541) (Staphylococcus sp.; strain GC 4541): 16 µg/mL (≈ 10.3 µM)
MIC Staphylococcus aureus (GC 4542) (Staphylococcus sp.; strain GC 4542): 8 µg/mL (≈ 5.16 µM)
MIC Staphylococcus aureus (GC 4544) (Staphylococcus sp.; strain GC 4544): 16 µg/mL (≈ 10.3 µM)
MIC Staphylococcus aureus (GC 4545) (Staphylococcus sp.; strain GC 4545): 8 µg/mL (≈ 5.16 µM)
MIC Enterococcus avium (GC 4558) (Enterococcus sp.; Enterococcus avium (GC 4558)): 4 µg/mL (≈ 2.58 µM)
MIC Enterococcus faecalis (ATCC 29212) (Enterococcus sp.; Enterococcus faecalis (ATCC 29212)): 8 µg/mL (≈ 5.16 µM)
MIC Enterococcus faecalis (GC 2242) (Enterococcus sp.; Enterococcus faecalis (GC 2242)): 8 µg/mL (≈ 5.16 µM)
MIC Enterococcus faecalis (GC 2691) (Enterococcus sp.; Enterococcus faecalis (GC 2691)): 16 µg/mL (≈ 10.3 µM)
MIC Enterococcus faecalis (GC 3059) (Enterococcus sp.; Enterococcus faecalis (GC 3059)): 16 µg/mL (≈ 10.3 µM)
MIC Enterococcus faecalis (GC 4552) (Enterococcus sp.; Enterococcus faecalis (GC 4552)): 8 µg/mL (≈ 5.16 µM)
MIC Enterococcus faecalis (GC 4553) (Enterococcus sp.; Enterococcus faecalis (GC 4553)): 8 µg/mL (≈ 5.16 µM)
MIC Enterococcus faecalis (GC 4554) (Enterococcus sp.; Enterococcus faecalis (GC 4554)): 16 µg/mL (≈ 10.3 µM)
MIC Enterococcus faecalis (GC 6189) (Enterococcus sp.; Enterococcus faecalis (GC 6189)): 8 µg/mL (≈ 5.16 µM)
MIC Enterococcus faecium (GC 2243) (Enterococcus sp.; Enterococcus faecium (GC 2243)): 8 µg/mL (≈ 5.16 µM)
MIC Enterococcus faecium (GC 4556) (Enterococcus sp.; Enterococcus faecium (GC 4556)): 8 µg/mL (≈ 5.16 µM)
MIC Enterococcus faecium (GC 4557) (Enterococcus sp.; Enterococcus faecium (GC 4557)): 4 µg/mL (≈ 2.58 µM)
MIC Enterococcus faecalis (ATCC 29212) (Enterococcus sp.; strain ATCC 29212): 8 µg/mL (≈ 5.16 µM)
MIC Enterococcus faecalis (GC 2242) (Enterococcus sp.; strain GC 2242): 8 µg/mL (≈ 5.16 µM)
MIC Enterococcus faecium (GC 2243) (Enterococcus sp.; strain GC 2243): 8 µg/mL (≈ 5.16 µM)
MIC Enterococcus faecalis (GC 2691) (Enterococcus sp.; strain GC 2691): 16 µg/mL (≈ 10.3 µM)
MIC Enterococcus faecalis (GC 3059) (Enterococcus sp.; strain GC 3059): 16 µg/mL (≈ 10.3 µM)
MIC Enterococcus faecalis (GC 4552) (Enterococcus sp.; strain GC 4552): 8 µg/mL (≈ 5.16 µM)
MIC Enterococcus faecalis (GC 4553) (Enterococcus sp.; strain GC 4553): 8 µg/mL (≈ 5.16 µM)
MIC Enterococcus faecalis (GC 4554) (Enterococcus sp.; strain GC 4554): 16 µg/mL (≈ 10.3 µM)
MIC Enterococcus faecium (GC 4556) (Enterococcus sp.; strain GC 4556): 8 µg/mL (≈ 5.16 µM)
MIC Enterococcus faecium (GC 4557) (Enterococcus sp.; strain GC 4557): 4 µg/mL (≈ 2.58 µM)
MIC Enterococcus avium (GC 4558) (Enterococcus sp.; strain GC 4558): 4 µg/mL (≈ 2.58 µM)
MIC Enterococcus faecalis (GC 6189) (Enterococcus sp.; strain GC 6189): 8 µg/mL (≈ 5.16 µM)
Structure (SMILES): N=C1NCC(C(O)C2NC(=O)C(Cc3ccc(OC4OC(CO)C(OC5OC6COC7(OC6C6OC8(OC56)C5CC6CC(C5)CC8C6)C5CC6CC(C5)CC7C6)C(O)C4O)cc3)NC(=O)C(CC3CCCCC3)NC(=O)CNC(=O)C(CO)NC(=O)C(C(O)C3CNC(=N)N3C3OC(CO)C(O)C(O)C3O)NC2=O)N1 (centres unmarked) [Example 106b, Cyclo[3-cyclohexylalanyl-O-[4-O-[2,3:4,6-di-O-(2-adamantylidene)hexopyranosyl]hexopyranosyl]tyrosyl-3-(2-iminoimidazolidin-4-yl)seryl-3-(3-hexopyranosyl-2-iminoimidazolidin-4-yl)-serylserylglycyl]]
MIC Staphylococcus haemolyticus (GC 4546) (Staphylococcus sp.): 4 µg/mL (≈ 2.58 µM)
MIC Staphylococcus haemolyticus (GC 4546) (Staphylococcus sp.; strain GC 4546): 4 µg/mL (≈ 2.58 µM)
